According to patent US6022307A, “Substituted dibenzothiophenes having antiangiogenic activity” (American Cyanamid Company, priority 1999, dated 2000):
Structures can show the parent of a compound that is named as a salt. One block for each molecule: values may come before it.

What was measured:
[1] = system: corneal neovascularization; assay: Corneal Neovascularization Model; format: in vivo, mice; settings: 100 mg/kg, PO, days 1-10
Protocol: Corneal Neovascularization Model
The sustained release preparations of angiogenic agents (ELVAX pellet) were prepared by solvent casting. […] The solvent was then evaporated, leaving the angiogenic agent in the polymeric matrix
Mice were anesthetized using a 1-1.5 ml/kg solution containing a mixture of 70% ketamine hydrochloride (100 mg/ml) and 30% xylazine (20 mg/ml). Using sterile surgical technique, an ELVAX pellet containing either basic FGF (100 ng) or VEGF (400 ng) was implanted into a previously dissected intrastromal corneal pocket 0.5 mm from the corneoscleral limbus. Following implantation the implantation site margins were reapposed and the eyes were treated with topical antibiotic ointment (bacitracin/neomycin/polymixin). On various days (between postoperative days 4 and 18) the extent of neovascularization was measured.
Neovascularization was monitored by measurements of new vessel growth within the previously avascular cornea. This parameter was obtained by measuring with calipers under microscopic magnification the length of the base of the neovascular bed at the limbus. The area of neovascularization,which is typically triangular, was calculated by dividing the product of the length of the vessel and the base length by two. Data was statistically analyzed via Student-t-test of Log Relative Reduction of Neovascularization. A p-value (p≤0.05) indicates a statistically significant reduction in neovascularization of Treated Group, compared to Placebo Control.

[2] = system: VEGF 165-induced vascular permeability; assay: Inhibition of Vascular Permeability Assay (Miles Assay); format: in vivo, BALB/c female mice; settings: 100 mg/kg, PO
Protocol: Inhibition of Vascular Permeability Assay (Miles Assay) This assay was performed using BALB/c female mice (Charles River, Wilmington, Mass.). Both sides of the animals were shaved between 24 and 48 hours before the start of the assay. There were 10 animals per experimental group. […] One half hour later the animals were sacrificed by CO2 inhalation. […] Data was statistically analyzed via Student-t-test. A p-value (p≤0.05) indicates a statistically significant difference between the area of vascular permeability of the vehicle control verses the experimental group. Data was statistically analyzed via Student-t-test of Log Relative Area of Permiability. A p-value (p≤0.05) indicates a statistically significant reduction in permeability of Treated Group, compared to Placebo Control.

Protocol for KDR: Inhibition of Binding of VEGF 165 to KDR & Flt-1 Receptors as Measured by SPA Assay
Preparation of conditioned media containing the KDR-Fc soluble VEGF receptor.:
Human 293KDR2 cells, which secrete a soluble KDR-Fc fusion protein, were grown in Dulbecco's Modified Eagle Medium supplemented with 10% fetal calf serum, 2 mM glutamine, 10 units/ml penicillin G sulfate, 10 μg/ml streptomycin sulfate and 175 μg/ml geneticin (G418) sulfate. Cells were plated at a density of 10^6 cells/100 mm dish and incubated at 37° C. in a humidified atmosphere containing 95% air and 5% CO2. After 10 days, conditioned medium was collected and centrifuged at 15,000 rpm for 15 min to remove dead cells. A total of 0.1 volume of 1.15% gelatin and 0.02 volume of 1M HEPES buffer (pH 8) was added. Leupeptin and pepstatin A were added to 1 μg/ml each.
Preparation of ^125 I-labelled VEGF ligand:
Recombinant human ^125 T-labelled VEGF 165 was purchased from Amersham (3,800 cpm/fmol). ^125,-labelled VEGF was diluted in DMEM supplemented with gelatin (0.15%) and HEPES buffer (20 mM) to a final concentration of 40,000 cpm/25 μl.
Preparation of SPA beads:
SPA PVT antibody-binding beads were purchased from Amersham. Each bottle of SPA beads (500 mg) was reconstituted in 25 ml of DMEM supplemented with gelatin (0.15%) and HEPES buffer (20 mM). The bottle contents were well mixed (15 min with a stir bar at room temperature).
SPA assays were performed in flat-bottom polystyrene 96 well microtitre plates.
(a) Pipette 50 μl of SPA beads to well.
(b) Pipette 25 μl of conditioned medium to well.
(d) Pipette 25 μl of ^125 J-VEGF 165 to well.
The appropriate control wells were set up to measure non-specific binding, solvent effect, etc. The assays were run in duplicate or triplicate wells. Plates were sealed and incubate at room temperature without shaking for 5 to 20 hours. Plates were then counted in a Packard TopCount microtitre plate liquid scintillation counter.
A typical assay gave 3,000 to 6,000 cpm bound. Background binding (measured in the presence of 100-fold molar excess of unlabelled VEGF 165) was typically 200 to 300 cpm bound. Compounds were tested at 30, 10, 3, 1, 0.3 and 0.1 μg/ml in DMSO. […] Half maximal binding was determined by the following equation:
s=maximal cpm bound in the absence of compound.
The IC50 values were determined graphically by the following procedure:
A graph was drawn plotting compound concentration (x-axis) versus cpm bound (y-axis).
The half maximal binding was calculated using the equation above.
A horizontal line (LINE A) was drawn which intersects the y-axis at the half maximal binding value.
A vertical line (LINE B) was drawn through the point where LINE A intersects the inhibition curve.
The point where LINE B intersects the x-axis was extrapolated from the graph to give the IC50 value.

Structure (SMILES): COc1ccc(C=CC(=O)Nc2cc3sc4cc(NC(=O)C=Cc5ccc(OC)c(OC)c5Cl)c(C(=O)[O-])cc4c3cc2C(=O)[O-])c(Cl)c1OC.[Na+].[Na+]
- Inhibition of Corneal Neovascularization ([1]; Day 4): 11%
- Inhibition of Corneal Neovascularization ([1]; Day 8): 24%
- Inhibition of Corneal Neovascularization ([1]; Day 11): 29%
- Inhibition of Corneal Neovascularization ([1]; Day 13): 37%

Structure (SMILES): O=C(Nc1cc2sc3cc(NC(=O)c4ccc5c(c4)C(=O)c4ccccc4C5=O)c(C(=O)O)cc3c2cc1C(=O)O)c1ccc2c(c1)C(=O)c1ccccc1C2=O.[Na].[Na] [Example 4, 3,7-Bis{[(9,10-dihydro-9,10-dioxo-2-anthracenyl)carbonyl]-amino}dibenzothiophene-2,8-dicarboxylic acid, disodium]
- Inhibition of Corneal Neovascularization ([1]; Day 4): 55%
- Inhibition of Corneal Neovascularization ([1]; Day 8): 38%
- Inhibition of Corneal Neovascularization ([1]; Day 11): 40%
- Inhibition of Corneal Neovascularization ([1]; Day 13): 23%
- IC50 (KDR): 0.2 µg/mL

Structure (SMILES): CCOP(=O)(O)c1cc2c(cc1NC(=O)c1cc3ccccc3s1)S(=O)(=O)c1cc(NC(=O)c3cc4ccccc4s3)c(P(=O)(O)OCC)cc1-2 [Example 23a, [3,7-Bis[(benzo[b]thiophene-2-carbonyl)amino-8-(ethoxyhydroxyphosphoryl)-5,5-dioxo-5H-5λ^6-dibenzothiophen-2-yl]phosphonic acid monoethyl ester, disodium salt]
- Inhibition of Corneal Neovascularization ([1]; Day 4): 70%
- Inhibition of Corneal Neovascularization ([1]; Day 8): 55%
- Inhibition of Corneal Neovascularization ([1]; Day 11): 46%
- Inhibition of Corneal Neovascularization ([1]; Day 13): 50%
- IC50 (KDR): 1.65 µg/mL

Structure (SMILES): O=C(C=Cc1ccc(-c2ccccc2)cc1)Nc1cc2c(cc1S(=O)(=O)O)-c1cc(S(=O)(=O)O)c(NC(=O)C=Cc3ccc(-c4ccccc4)cc3)cc1S2(=O)=O [Example 24, 3,7-Bis-[3-(4-phenylphenyl)acryloylamino]-5,5-dioxo-5H-5λ^6-dibenzothiophene-2,8-disulfonic acid, disodium salt]
- % Control ([2]; 1 hr prior to VEGF): 55%
- Lesion Area (measured area of vascular permeability) ([2]; 1 hr prior to VEGF): 25.8 mm^2
- % Control ([2]; 2 hr prior to VEGF): 80%
- Lesion Area (measured area of vascular permeability) ([2]; 2 hr prior to VEGF): 37.8 mm^2
- % Control ([2]; 4 hr prior to VEGF): 49%
- Lesion Area (measured area of vascular permeability) ([2]; 4 hr prior to VEGF): 23.1 mm^2
- IC50 (KDR): 0.8 µg/mL

Structure (SMILES): O=Cc1ccc(/C=C/C(=O)Nc2cc3c(cc2S(=O)(=O)O)-c2cc(S(=O)(=O)O)c(NC(=O)/C=C/c4ccc(C=O)cc4)cc2S3(=O)=O)cc1 [Example 29, 3,7-Bis-[3-(4-formylphenyl)-acryloylamino]-5,5-dioxo-5H-5^6-dibenzothiophene-2,8-disulfonic acid, disodium salt]
- % Control ([2]; 4 hr prior to VEGF): 81%
- Lesion Area (measured area of vascular permeability) ([2]; 4 hr prior to VEGF): 76.5 mm^2
- IC50 (KDR): 0.5 µg/mL

Structure (SMILES): COc1ccc2cc(C(=O)Nc3cc4c(cc3S(=O)(=O)O)-c3cc(S(=O)(=O)O)c(NC(=O)c5cc6ccc(OC)cc6oc5=O)cc3S4(=O)=O)c(=O)oc2c1 [Example 47, 3,7-Bis-[(7-methoxy-2-oxo-benzopyran-3-yl)-carbonylamino]-5,5-dioxo-5H-5^6-dibenzothiophene-2,8-disulfonic acid, disodium salt]
- % Control ([2]; 4 hr prior to VEGF): 71%
- Lesion Area (measured area of vascular permeability) ([2]; 4 hr prior to VEGF): 32.8 mm^2
- IC50 (KDR): 0.5 µg/mL

Structure (SMILES): COc1ccc(C(=O)Nc2ccc(C(=O)Nc3cc4c(cc3S(=O)(=O)O)-c3cc(S(=O)(=O)O)c(NC(=O)c5ccc(NC(=O)c6ccc(OC)cc6OC)cc5OC)cc3S4(=O)=O)c(OC)c2)c(OC)c1 [Example 58, 3,7-Bis-({4-[(2,4-dimethoxy-phenyl)carbonyl-amino]-2-methoxy-phenyl}carbonyl-amino)-5,5-dioxo-5H-5^6-dibenzothiophene-2,8-disulfonic acid, disodium salt]
- IC50 (KDR): 1.5 µg/mL

Structure (SMILES): COc1ccc(C=CC(=O)Nc2cc3sc4cc(NC(=O)C=Cc5ccc(OC)c(OC)c5Cl)c(C(=O)[O-])cc4c3cc2C(=O)[O-])c(Cl)c1OC.[Na+].[Na+] [disodium salt]
- IC50 (KDR): 3 µg/mL

Second part, led by results:

- IC50 (KDR): 1.5 µg/mL
Structure (SMILES): O=C(Nc1cc2sc3cc(NC(=O)c4cc5ccccc5s4)c(C(=O)O)cc3c2cc1C(=O)O)c1cc2ccccc2s1 [Example 2, 3,7-Bis-r(benzo[b]thiophene-2-carbonyl)amino]dibenzothiophene-2,8-dicarboxylic acid, disodium salt]
- % Control ([2]; 4 hr prior to VEGF): 57%
- Lesion Area (measured area of vascular permeability) ([2]; 4 hr prior to VEGF): 34.0 mm^2

- IC50 (KDR): 4.9 µg/mL
Structure (SMILES): COc1ccc(/C=C/C(=O)Nc2cc3sc4cc(NC(=O)/C=C/c5ccc(OC)cc5)c(C(=O)O)cc4c3cc2C(=O)O)cc1 [Example 12, 3,7-Bis{[3-(4-methoxyphenyl)acryloylamino]-dibenzothiophene-2,8-dicarboxylic Acid, disodium salt]
- Inhibition of Corneal Neovascularization ([1]; Day 4): 41%
- Inhibition of Corneal Neovascularization ([1]; Day 8): 41%
- Inhibition of Corneal Neovascularization ([1]; Day 11): 34%
- Inhibition of Corneal Neovascularization ([1]; Day 13): 8%

- IC50 (KDR): 0.6 µg/mL
Structure (SMILES): O=C(Nc1cc2c(cc1S(=O)(=O)O)-c1cc(S(=O)(=O)O)c(NC(=O)c3cc4ccccc4o3)cc1S2(=O)=O)c1cc2ccccc2o1 [Example 42, 3,7-Bis[(benzo[b]furan-2-carbonyl)amino]-5,5-dioxo-5H-5^6-dibenzothiophene-2,8-disulfonic acid, disodium salt]
- % Control ([2]; 2 hr prior to VEGF): 74%
- Lesion Area (measured area of vascular permeability) ([2]; 2 hr prior to VEGF): 40.0 mm^2
- Lesion Area (measured area of vascular permeability) ([2]; 2 hr prior to VEGF, disodium salt): 33.5 mm^2
- % Control ([2]; 4 hr prior to VEGF): 69%
- Lesion Area (measured area of vascular permeability) ([2]; 4 hr prior to VEGF): 31.1 mm^2

- IC50 (KDR): 7 µg/mL
Structure (SMILES): O=C(Nc1cc2c(cc1S(=O)(=O)O)-c1cc(S(=O)(=O)O)c(NC(=O)c3ccc(S(=O)(=O)c4ccccc4)cc3)cc1S2(=O)=O)c1ccc(S(=O)(=O)c2ccccc2)cc1 [Example 52, 5,5-Dioxo-3,7-bis-(4-phenyl-sulfonylbenzoyl-amino)-5H-5^6-dibenzothiophene-2,8-disulfonic acid, disodium salt]

- IC50 (KDR): 7 µg/mL
Structure (SMILES): CCOc1cc2ccccc2cc1C(=O)Nc1cc2c(cc1S(=O)(=O)O)-c1cc(S(=O)(=O)O)c(NC(=O)c3cc4ccccc4cc3OCC)cc1S2(=O)=O [Example 53, 3,7-Bis-(3-ethoxy-naphthalen-2-ylcarbonylamino)-5,5-dioxo-5H-5^6-dibenzothiophene-2,8-disulfonic acid, disodium salt]

- IC50 (KDR): 5 µg/mL
Structure (SMILES): O=C(Nc1cc2c(cc1S(=O)(=O)O)-c1cc(S(=O)(=O)O)c(NC(=O)c3ccc4ccccc4c3)cc1S2(=O)=O)c1ccc2ccccc2c1 [Example 57, 3,7-Bis-[(naphthalen-2-yl)carbonylamino]-5,5-dioxo-5H-5^6-dibenzothiophene-2,8-disulfonic acid, disodium salt]

- IC50 (KDR): 6 µg/mL
Structure (SMILES): COc1cc(NC(C)=O)ccc1C(=O)Nc1cc2c(cc1S(=O)(=O)O)-c1cc(S(=O)(=O)O)c(NC(=O)c3ccc(NC(C)=O)cc3OC)cc1S2(=O)=O [Example 59, 3,7-Bis-[(4-acetylamino-2-methoxy-phenyl)carbonylamino]-5,5-dioxo-5H-5^6-dibenzothiophene-2,8-disulfonic acid, disodium salt]

- IC50 (KDR): 0.5 µg/mL
Structure (SMILES): O=C(Nc1ccc(C(=O)Nc2cc3c(cc2S(=O)(=O)O)-c2cc(S(=O)(=O)O)c(NC(=O)c4ccc(NC(=O)c5ccccc5)cc4)cc2S3(=O)=O)cc1)c1ccccc1 [Example 60, 3,7-Bis-(4-benzoylaminobenzoylamino)-5,5-dioxo-5H-5^6-dibenzothiophene-2,8-disulfonic acid, disodium salt]
